“Also recorded” adds a separate entry of the source.
Tests used:
[1] = system: RT4; assay: Proliferation assay using bladder cancer cell lines, RT4; type: cell-based, human; conditions: 72 h culture, CyQuant proliferation assay
Procedure: (§1) Bladder cancer cell lines (T24, RT112, HT1376 and RT4 are human bladder cancer cell lines; NHEK are normal human keratinocytes) were obtained from the European Collection of Cell Cultures (Salisbury, UK). Cells were plated at 3×10^3 per well, in flat bottomed 96-well plates in 100 μl of DMEM medium containing: 5% Fetal Clone I, 50 μg/l gentamicin, 1 mM sodium pyruvate and 1% non-essential amino acids. After culturing for 24 h at 37° C. in 5% CO2, to allow cells to adhere to the plates, VDR ligands (compounds (2), (4), (5) and other vitamin D3 analogs as shown in Table 4) were added at concentrations ranging from 100 μM to 0.3 μM in 100 μl of above-mentioned complete medium. After a further 72 h of culture, cell proliferation was measured using a fluorescence-based proliferation assay kit. (CyQuant Cell Proliferation Assay Kit, Molecular Probes, Eugene, Oreg., USA). The IC50 was calculated from the regression curve of the titration data.

[2] = system: RT112; assay: Proliferation assay using bladder cancer cell lines, RT112; type: cell-based, human; conditions: 72 h culture, CyQuant proliferation assay
Procedure: as §1

[3] = system: ECV; assay: Proliferation assay using bladder cancer cell lines, ECV; type: cell-based, human; conditions: 72 h culture, CyQuant proliferation assay
[4] = system: NHEK; assay: Proliferation assay, NHEK normal human keratinocytes; type: cell-based; conditions: 72 h culture, CyQuant proliferation assay
Procedure: as §1

[5] = system: HT 1376; assay: Proliferation assay using bladder cancer cell lines, HT1376; type: cell-based, human; conditions: 72 h culture, CyQuant proliferation assay
Procedure: as §1

[6] = Determination of Maximum Tolerated Dose (MTD); conditions: for MTD at 4 days: female, C57BL/6, mouse, in vivo, po; for MTD compared with the corresponding dihydroxy (parent) compound: versus (1) or (3)
Procedure: The maximum tolerated dose of the vitamin D3 compounds of the invention were determined in eight week-old female C57BL/6 mice (3 mice/group) dosed orally (0.1 ml/mouse) with various concentrations of Vitamin D3 analogs daily for four days. Analogs were formulated in miglyol for a final concentration of 0.01, 0.03, 0.1 0.3, 1, 3, 10, 30, 100 and 300 μg/kg when given at 0.1 ml/mouse p.o. daily. Blood for serum calcium assay was drawn by tail bleed on day five, the final day of the study.

[7] = system: IFN-γ production; assay: IFN-γ production in the mixed leukocyte response (MLR); type: cell-based; conditions: 120 h; allogeneic PBMC from 2 donors, 5 days, ELISA; read-out: INF-γ IC50
Procedure: Immature dendritic cells (DC) were prepared as described in Romani, N. et al. (Romani, N. et al. (1996) J. Immunol. Meth. 196:137). IFN-γ production by allogeneic T cell activation in the mixed leukocyte response (MLR) was determined as described in Penna, G., et al., J Immunol., 164: 2405-2411 (2000).
Briefly, peripheral blood mononuclear cells (PBMC) were separated from buffy coats by Ficoll gradient and the same number (3×10^5) of allogeneic PBMC from 2 different donors were co-cultured in 96-well flat-bottom plates. The vitamin D3 compounds were added to each of the cultures.

[8] = MTD in CD1 mouse (highest non-hypercalcemic dose); conditions: in vivo
[9] = system: Human BPH cells; assay: BPH cell proliferation assay (testosterone-induced); type: cell-based; conditions: 48 h
Procedure: Human BPH cells, prepared, maintained and used as previously described in Crescioli C, et al. Journal of Clinical and Endocrinology Metabolism (2000) 85 p 2576-2583, were obtained from prostate tissues derived from 5 patients, who underwent suprapubic adenomectomy for BPH, after informed consent and approval by the Local Ethical Committee.
For all cell proliferation assays, 4×10^4 BPH cells were seeded onto 12-well plates in their growth medium, starved in red- and serum-free medium containing 0.1% BSA for 24 h, and then treated with specific stimuli for 48 h. Cells in phenol red- and serum-free medium containing 0.1% BSA were used as controls. Thereafter, cells were trypsinized, and each experimental point was derived from hemocytometer counting, averaging at least six different fields for each well, as previously reported (see Crescioli C, et al. Journal of Clinical and Endocrinology Metabolism (2000) 85 p 2576-2583).
Growth assays were also carried out using a fixed concentration of androgens (10 nM) with or without vitamin-D analogs (1 nM, 10 nM) or the anti-androgens finasteride (F, 1 nM) and cyproterone acetate (Cyp, 100 nM. Growth assays were also performed using a fixed concentration of T (10 nM) or GFs (10 ng/ml) with or without the vitamin-D analogs. (10 nM).
In the same experiment, each experimental point was repeated in triplicate or quadruplicate and experiments were performed 3 times. Results are expressed as % variation (mean±SEM) over the maximal T or GF-induced stimulation.

## CC(C/C=C\C(O)(C(F)(F)F)C(F)(F)F)C1=CCC2C(=CC=C3CC(O)CC(O)C3)CCCC12C (centres unmarked) [(1), 1,25-dihydroxy-16,23Z-diene-26,27-hexafluoro-19-nor-cholecalciferol, reference compound]
[1]
  IC50: 20 µM
[2]
  IC50: 24 µM
[3]
  IC50: 58.7 µM
[4]
  IC50: 4.4 µM
[5]
  IC50: 56 µM

## CC(CC#CC(O)(C(F)(F)F)C(F)(F)F)C1=CCC2C(=CC=C3CC(O)CC(O)C3)CCCC12C (centres unmarked) [(3), 1,25-dihydroxy-16-ene-23-yne-26,27-hexafluoro-19-nor-cholecalciferol, reference compound]
[6]; female C57BL/6 mice, p.o. daily for four days, highest dose without hypercalcemia (serum calcium >10.7 mg/dl)
  MTD (mice): 0.3 µg/kg

## CC(=O)OC1C/C(=C/C=C2\CCC[C@]3(C)C(C(C)CC#CC(O)(C(F)(F)F)C(F)(F)F)=CCC23)C[C@@H](OC(C)=O)C1 (some centres unmarked) [(4), 1,3-Di-O-acetyl-1,25-Dihydroxy-16-ene-23-yne-26,27-hexafluoro-19-nor-cholecalciferol]
[1]; Homo sapiens, RT-4, 72 h
  IC50: 9 µM
[7]
  IC50: 0.525 nM
[6]
  MTD at 4 days: 10 µg/kg
  MTD compared with the corresponding dihydroxy (parent) compound: significantly higher; also recorded: considerably greater
[2]; Homo sapiens, RT-112, 72 h
  IC50: 15 µM
[3]; Homo sapiens
  IC50: 29 µM
[4]; Homo sapiens, NHEK
  IC50: 0.8 µM
[5]; Homo sapiens, HT-1376
  IC50: > 100 µM

## CC(=O)OC1C/C(=C/C=C2\CCC[C@]3(C)C(C(C)CC#CC(OC(C)=O)(C(F)(F)F)C(F)(F)F)=CCC23)C[C@@H](OC(C)=O)C1 (some centres unmarked) [(5), 1,3,25-Tri-O-acetyl-1,25-Dihydroxy-16-ene-23-yne-26,27-hexafluoro-19-nor-cholecalciferol]
[1]; Homo sapiens, RT-4, 72 h
  IC50: 7 µM
[7]
  IC50: 0.499 nM
[6]
  MTD at 4 days: 3 µg/kg
  MTD compared with the corresponding dihydroxy (parent) compound: significantly higher; also recorded: considerably greater
[2]; Homo sapiens, RT-112, 72 h
  IC50: 13 µM
[3]; Homo sapiens
  IC50: 32 µM
[4]; Homo sapiens, NHEK
  IC50: 25.6 µM
[5]; Homo sapiens, HT-1376
  IC50: > 100 µM

## C=C1/C(=C\C=C2/CCC[C@]3(C)C(C(C)C/C=C/C(C)(C)O)=CCC23)CC(OC(C)=O)C[C@@H]1OC(C)=O (some centres unmarked) [(9), 1,3-Di-O-acetyl-1,25-dihydroxy-16,23E-diene-cholecalciferol]
[1]; Homo sapiens, RT-4, 72 h
  IC50: 82 µM
[8]
  MTD: 3 µg/kg
[2]; Homo sapiens, RT-112, 72 h
  IC50: 14 µM
[9]
  IC50: 9.12 nM
[3]; Homo sapiens
  IC50: 58.7 µM
[4]; Homo sapiens, NHEK
  IC50: 5.1 µM
[5]; Homo sapiens, HT-1376
  IC50: > 100 µM

## C=C1/C(=C\C=C2/CCC[C@]3(C)C(C(C)CCCC(C)(C)O)=CCC23)CC(OC(C)=O)C[C@@H]1OC(C)=O (some centres unmarked) [(11), 1,3-Di-O-acetyl-1,25-dihydroxy-16-ene-cholecalciferol]
[1]; Homo sapiens, RT-4, 72 h
  IC50: 75 µM
[8]
  MTD: 1 µg/kg
[2]; Homo sapiens, RT-112, 72 h
  IC50: 18 µM
[9]
  IC50: 0.759 nM
[3]; Homo sapiens
  IC50: 59.9 µM
[4]; Homo sapiens, NHEK
  IC50: 5 µM
[5]; Homo sapiens, HT-1376
  IC50: > 100 µM

## C=C1/C(=C\C=C2/CCC[C@]3(C)C(C(C)CC#CC(OC(C)=O)(C(F)(F)F)C(F)(F)F)=CCC23)CC(OC(C)=O)C[C@@H]1OC(C)=O (some centres unmarked) [(13), 1,3,25-Tri-O-acetyl-1,25-dihydroxy-16-ene-23-yne-26,27-hexafluoro-cholecalciferol]
[1]; Homo sapiens, RT-4, 72 h
  IC50: 95 µM
[7]
  IC50: 0.0401 nM
[6]
  MTD at 4 days: 3 µg/kg
[2]; Homo sapiens, RT-112, 72 h
  IC50: 17 µM
[3]; Homo sapiens
  IC50: > 100 µM
[4]; Homo sapiens, NHEK
  IC50: 19.5 µM

## C=C1/C(=C\C=C2/CCC[C@]3(C)C(C(C)C/C=C/[C@@](C)(O)C(F)(F)F)=CCC23)CC(OC(C)=O)C[C@@H]1OC(C)=O (some centres unmarked) [(16), 1,3-Di-O-acetyl-1,25-dihydroxy-16,23E-diene-25R,26-trifluoro-cholecalciferol]
[1]; Homo sapiens, RT-4, 72 h
  IC50: 16 µM
[2]; Homo sapiens, RT-112, 72 h
  IC50: 2 µM
[3]; Homo sapiens
  IC50: 76.6 µM
[4]; Homo sapiens, NHEK
  IC50: 3.1 µM
[5]; Homo sapiens, HT-1376
  IC50: > 100 µM
